{
  "source": "patent US10370718B2",
  "about": "“Use of HLA genetic status to assess or select treatment of celiac disease” (ImmusanT, Inc., priority 2014, dated 2019)",
  "tested_on": "circulating cytokines",
  "experiment": "Circulating cytokines/chemokines in plasma after dosing (MAGPIX multiplex platform)",
  "format": "in vivo, human",
  "conditions": "dose of 150 micrograms; same dose in both genotype groups",
  "description": "3 cohorts of subjects with HLA-DQ2.5+(heterozygous or homozygous) biopsy-proven Celiac disease on a gluten-free diet for at least 1 year were included in the study. The first cohort (Cohort 1) contained 12 subjects who were dosed with 150 mcg of a gluten peptide composition (an equimolar composition in sodium chloride 0.9% USP of 3 peptides: ELQPFPQPELPYPQPQ (SEQ ID NO: 9), EQPFPQPEQPFPWQP (SEQ ID NO: 10), and EPEQPIPEQPQPYPQQ (SEQ ID NO: 11), each peptide comprising an N-terminal pyroglutamate and C-terminal amidated amino acid) or a placebo (sodium chloride 0.9% USP) intradermally, twice a week for 8 weeks total. The second cohort (Cohort 2) contained 13 subjects who were dosed with 300 mcg of the gluten peptide composition or the placebo intradermally, twice a week for 8 weeks total. […] Both Cohorts 1 and 2 received an oral gluten challenge and were assessed for gamma-interferon (gIFN) release and then returned to baseline prior to starting the treatment regimen. […]\nThe progress of each subject before, during and after the trial was assessed using multiple tests including serology (tTG-IgA, DGP-IgG, DGP-IgA, and EMA-IgA), histology, and IFNg whole blood release assay, and cytokine/chemokines in plasma (measured by MAGPIX® multiplex platform). Plasma cytokines and chemokines were measured at several timepoints pre and post first and last dose. […]",
  "note": "Square brackets hold non-standard residues; d marks the D form. pGlu = O=C1CC[C@@H](C(=O)O)N1",
  "data": [
    {"substance": "gluten peptide composition: equimolar composition in sodium chloride 0.9% USP of 3 peptides (SEQ ID NO: 9, 10, 11), each with N-terminal pyroglutamate and C-terminal amidated amino acid (chain 1 [pGlu]LQPFPQPELPYPQPQ-NH2; chain 2 [pGlu]QPFPQPEQPFPWQP-NH2; chain 3 [pGlu]PEQPIPEQPQPYPQQ-NH2)", "values": [
      {"measurement": "levels of circulating cytokines in response to administration, HLA-DQ2.5 homozygous subjects compared to subjects with other genotypes", "value": "generally increased levels of circulating cytokines"}
    ]}
  ]
}
